Laboratory results published in patent US20100056468A1, “Pyrimidine Derivatives As Anticancer Agents” (University Health Network, priority 2007, published 2010).
Read-outs that look alike come from different tables or passages of the source.

What was measured:
Mt ODCase = Mt ODCase (Methanothermobacter thermautotrophicus, UniProt O26232); conditions: read-out: inhibition constant (Ki), Mt ODCase; cited from earlier work
[1] = Tolerance in NOD-SCID mice; assay type: in vivo; conditions: 0.15 mg/kg and 1.5 mg/kg
Method: (§1) In a pilot study, first the in vivo effects of compound Ic in a murine tumor model (70Z/3) were studied. […]. In this pilot study, 10^6 70Z/3 cells were injected into syngeneic mice (C57BL6×DBA/2) after which the mice were treated with compound Ic on days 2, 3, 4, 7, 8, and 9 at doses of 0.15 mg/kg or 1.5 mg/kg or with PBS. Some mice were also treated with the compound alone to test for toxic effects in the absence of tumor growth. On day 10, two mice from each group were euthanized and they were examined for the presence of disease. After 70Z/3 cells are injected they home to the spleen and proliferate causing increased spleen weight and cellularity. […]. Two additional mice from each group were followed for an additional 7 days during which mice in the treatment groups were treated daily.

70Z/3 (murine) = test: WST-1 cell growth assay (Table 3); assay type: cell-based; conditions: Mus musculus, 72 h; 70Z/3 murine B cell leukemia, 3 days
Method: (§2) Thirteen C6 substituted nucleoside derivatives were tested against seventeen cancer cell lines in order to understand their anticancer activity potential. Cell growth was measured in 96 well plates (6 replicates per dose) in which 10^4 cells were seeded for 3 days with a range of concentrations of compound Ic and Id using the Roche WST-1 assay (Ishiyama M et al (1995) In Vitro Toxicology 8, 187-189) following manufactures directions.
In a pilot study, first the in vivo effects of compound Ic in a murine tumor model (70Z/3) were studied. This murine model served to provide the baseline for toxicity data in a tumor setting. […] In this pilot study, 10^6 70Z/3 cells were injected into syngeneic mice (C57BL6×DBA/2) after which the mice were treated with compound Ic on days 2, 3, 4, 7, 8, and 9 at doses of 0.15 mg/kg or 1.5 mg/kg or with PBS. Some mice were also treated with the compound alone to test for toxic effects in the absence of tumor growth. On day 10, two mice from each group were euthanized and they were examined for the presence of disease. After 70Z/3 cells are injected they home to the spleen and proliferate causing increased spleen weight and cellularity. […] It would appear from this very small pilot study that mice can tolerate a dose of the drug which is ten times more than a dose which reduces tumor expansion in the spleen (FIG. 4 and Table 2). […]

PC3 = test: WST-1 cell growth assay (Table 3); assay type: cell-based; conditions: Homo sapiens, PC-3, 72 h; PC3 prostate adenocarcinoma, 3 days
Method: as §2

T47D = test: WST-1 cell growth assay (Table 3); assay type: cell-based; conditions: Homo sapiens, 72 h; T47D breast adenocarcinoma, 3 days
Method: as §2

OCI MY2 = test: WST-1 cell growth assay (Table 3); assay type: cell-based; conditions: Homo sapiens, 72 h; OCI MY2 myeloma, 3 days
Method: as §2

OCI AML1 = test: WST-1 cell growth assay (Table 3); assay type: cell-based; conditions: Homo sapiens, 72 h; OCI AML1 myloid leukemia, 3 days
Method: as §2

OCI LY7 = test: WST-1 cell growth assay (Table 3); assay type: cell-based; conditions: Homo sapiens, 72 h; OCI LY7 B cell lymphoma, 3 days
Method: as §2

MCF7 = test: WST-1 cell growth assay (Table 3); assay type: cell-based; conditions: Homo sapiens, 72 h; MCF7 breast adenocarcinoma, 3 days
Method: as §2

COLO205 = test: WST-1 cell growth assay (Table 3); assay type: cell-based; conditions: Homo sapiens, COLO 205, 72 h; COLO205 colorectal adenocarcinoma, 3 days
Method: as §2

SNB19 = test: WST-1 cell growth assay (Table 3); assay type: cell-based; conditions: Homo sapiens, SNB-19, 72 h; SNB19 glioblastoma, 3 days
Method: as §2

MDA-MB-468 = test: WST-1 cell growth assay (Table 3); assay type: cell-based; conditions: Homo sapiens, 72 h; MDA-MB-468 breast adenocarcinoma, 3 days
Method: as §2

CCD967 = test: WST-1 cell growth assay (Table 3); assay type: cell-based; conditions: Homo sapiens, CCD-967, 72 h; CCD967 skin fibroblast line, 3 days
Method: as §2

PPC1 = test: WST-1 cell growth assay (Table 3); assay type: cell-based; conditions: Homo sapiens, PPC-1, 72 h; PPC1 prostate, 3 days
Method: as §2

OVCAR4 = test: WST-1 cell growth assay (Table 3); assay type: cell-based; conditions: Homo sapiens, OVCAR-4, 72 h; OVCAR4 ovarian adenocarcinoma, 3 days
Method: as §2

OCI AML2 = test: WST-1 cell growth assay (Table 3); assay type: cell-based; conditions: Homo sapiens, 72 h; OCI AML2 myloid leukemia, 3 days
Method: as §2

LOX = test: WST-1 cell growth assay (Table 3); assay type: cell-based; conditions: Homo sapiens, 72 h; LOX melanoma, 3 days
Method: as §2

HS578T = test: WST-1 cell growth assay (Table 3); assay type: cell-based; conditions: Homo sapiens, Hs-578T, 72 h; HS578T breast carcinosarcoma, 3 days
Method: as §2

SKW3 = test: WST-1 cell growth assay (Table 3); assay type: cell-based; conditions: Homo sapiens, 72 h; SKW3 T cell leukemia, 3 days
Method: as §2

[2] = tested on: 70Z/3 murine acute lymphoblastic leukemia; test: In vivo pilot study on 70Z/3 leukemic mice
Method: as §1

[3] = tested on: PBMC - Peripheral blood mononuclear cells; test: WST-1 cell growth assay on stimulated PBMCs (Table 3); assay type: cell-based, human
[4] = tested on: leukemia/lymphoma and breast cancer cell lines (AML1, AML2, SKW3, OCI LY7, OCI MY2, MDA-MB-468 and MCF7); test: WST-1 cell growth assay, summary over cell lines; assay type: cell-based; conditions: Homo sapiens, read-out: Inhibition constants (IC50s), range over cell lines
Method: as §2

ODCase = conditions: cited from earlier work
[5] = tested on: mouse L1210 leukemia cells; conditions: 25 μM, cultured mouse L1210 leukemia cells; cited from earlier work
[6] = Homo sapiens, volunteer, read-out: IC50
[7] = healthy human PBMCs stimulated with concanavalin A and phorbol myristate acetate, read-out: inhibitory constants (IC50's)

Mt ODCase, sequence (O26232 whole entry): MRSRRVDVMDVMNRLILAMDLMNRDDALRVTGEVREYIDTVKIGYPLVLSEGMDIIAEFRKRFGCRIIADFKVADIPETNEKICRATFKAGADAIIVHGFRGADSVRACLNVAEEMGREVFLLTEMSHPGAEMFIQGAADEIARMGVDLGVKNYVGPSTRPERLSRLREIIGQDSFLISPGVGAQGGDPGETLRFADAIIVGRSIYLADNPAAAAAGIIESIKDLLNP

Row | Structure (SMILES) | IC50 (70Z/3 (murine)) [µM] | IC50 (PC3) [µM] | IC50 (T47D) [µM] | IC50 (OCI MY2) [µM] | IC50 (OCI AML1) [µM] | IC50 (OCI LY7) [µM] | IC50 (MCF7) [µM] | IC50 (COLO205) [µM] | IC50 (SNB19) [µM] | IC50 (MDA-MB-468) [µM] | IC50 (CCD967) [µM] | IC50 (PPC1) [µM] | IC50 (OVCAR4) [µM] | IC50 (OCI AML2) [µM] | IC50 (LOX) [µM] | IC50 (HS578T) [µM] | IC50 (SKW3) [µM] | IC50 [3, 6] [µM] | IC50 [3, 7] [µM] | IC50 [4] [µM] | further results
1 | O=c1cnn([C@@H]2O[C@H](COP(=O)(O)O)[C@@H](O)[C@H]2O)c(=O)[nH]1 [6-Aza-uridine uridine 5′-monophosphate, 6-aza-uridine 5′-monophosphate] |  |  |  |  |  |  |  |  |  |  |  |  |  |  |  |  |  |  |  |  | Ki (Mt ODCase): 11 µM
2 | Nc1cc(=O)[nH]c(=O)n1[C@@H]1O[C@H](CO)[C@@H](O)[C@H]1O [Ic, 6-Amino uridine] | 0.3 | > 4 | > 4 | > 4 | 0.8 ± 0.1 | 1.8 ± 0.1 | 1.5 ± 0.1 | > 4 | > 4 | 3.7 ± 0.1 | > 4 | > 4 | > 4 | 0.9 ± 0.1 | > 4 | > 4 | 0.8 ± 0.1 | > 10 | > 10 | 0.7 to 3.5 | tolerance [1]: tolerated these doses without apparent toxicity; disease progression ([2]; followed for an additional 7 days, treated daily, untreated mice died on days 11 and 13): no sign of disease progression; spleen weight and cellularity ([2]; mice injected with 10^6 70Z/3 cells, 0.15 mg/kg or 1.5 mg/kg on days 2, 3, 4, 7, 8, 9, day 10): indistinguishable from the control mice; spleen weight or cellularity, compound alone ([2]; mice without tumor, compound alone, day 10): did not influence spleen weight or cellularity
3 | [N-]=[N+]=Nc1cc(=O)[nH]c(=O)n1[C@@H]1O[C@H](CO)[C@@H](O)[C@H]1O [Id, 6-Azido uridine] | 0.2 | > 4 | > 4 | 3.8 | 0.7 ± 0.1 | 1 ± 0.2 | 1 ± 0.2 | > 4 | > 4 | 2.5 ± 0.3 | > 4 | > 4 | > 4 | 0.8 ± 0.2 | 3.8 ± 0.2 | > 4 | 0.7 ± 0.1 | > 10 | > 10 | 0.7 to 3.5 | 
4 | NC(=O)c1[nH]nc(C2OC(COP(=O)(O)O)C(O)C2O)c1O (centres unmarked) [Pyrazofurin 5′-monophosphate] |  |  |  |  |  |  |  |  |  |  |  |  |  |  |  |  |  |  |  |  | Ki (ODCase): 0.005 µM
5 | NC(=O)c1[nH]nc([C@@H]2O[C@H](CO)[C@@H](O)[C@H]2O)c1O [pyrazofurin] |  |  |  |  |  |  |  |  |  |  |  |  |  |  |  |  |  |  |  |  | accumulation of OMP [5]: eight-fold increase
